Tests used:
Type in all cases: physicochemical
[1] = Optimal amount of Polysorbate 20: solubility of solutions after storage, by naked eye; design: key: +: not dissolved (or deposited); −: dissolved; details: KRN7000 200 μg/ml, stored as solution 25° C.
Protocol: (§1) Next, 20 mg of the active component (KRN7000) was weighed and stirred in 100 ml of the Polysorbate solutions having a variety of concentrations in a heated bath at 80° C. for 20 minutes in order to form a solution. After cooling with running water, the mixture was filtered through a 0.22 μm filter, and transparent colorless glass vials having a volume of 5 ml were charged with a 2 ml portion of each of a variety of solutions and sealed up.
These samples were stored at 25° C. for 2 weeks, and judged of their solubility. The samples judged in solution were further stored, and judged again of their solubility after 1 month.
(§2) The solubility was judged by cleaning the outside of the vial and placing it beneath the white light source in the darkroom for observation with naked eye at the position of a luminous intensity of about 5,000 lux. When the sample was clear with no precipitates, it was judged that the active component was dissolved.
In the table, the variations with the passage of time after storage represent the solubility when stored in the form of solution.

[2] = Lyophilized preparations with Polysorbate 20 alone: re-solubility immediately after lyophilization; details: KRN7000 200 μg/ml, reconstituted in 1 ml distilled water for injection
Protocol: as §1, with “bath to” for “bath at”, “a 1” for “a 2”, “and subjected to lyophilizaiton. Lyophilization was carried out under the condition of preliminary freezing at −40° C. for 2 hours and drying at −20° C. for 24 hours, 10° C. for 12 hours, and finally at 25° C. for 5 hours to give the lyophilized product. The degree of vacuum was set at 0.1 Torr or less during drying step.” for “and sealed up.”
After the lyophilization step, the lyophilized composition was reconstituted in 1 ml of distilled water for injection, left standing for 30 minutes, and solubility was judged when the foams generated on reconstituiton disappeared.
as §2, with “in a” for “in the”

[3] = Additives for improving re-solubility during storage, mannitol as excipient; details: lyophilized, Polysorbate 20 0.5%, 25° C.
Protocol: First, Polysorbate 20 was dissolved in distilled water in a concentration of 0.5%, and mannitol and a variety of additives such concentrations as listed in Table 8. Next, 20 mg of the active component (KRN7000) was weighed and stirred in 100 ml of the solvents in a heated bath to 80° C. for 20 minutes in order to form a solution. After cooling with running water, the mixture was filtered through a 0.22 μm filter, and transparent colorless glass vials having a volume of 5 ml were charged with 1 ml portion of each of a variety of solutions thus obtained and subjected to lyophilization. Lyophilization was carried out under the condition of preliminary freezing at −40° C. for 2 hours and drying at −20° C. for 24 hours, 10° C. for 12 hours, and finally at 25° C. for 5 hours to give the lyophilized product. The degree of vacuum was set at 0.1 Torr or less during drying step.
After the lyophilization step, the lyophilized composition was stored at 25° C. After storage for 1 month, the lyophilized composition was reconstituted in 1 ml of distilled water for injection, left standing for 30 minutes, and solubility was judged when the foams generated on reconstitution disappeared. The samples judged in solution were further stored, and judged again of their solubility after 4 months.
as §2, with “in a” for “in the”

[4] = Addition effects of sodium deoxycholate and histidine in the absence of a sugar; details: lyophilized, Polysorbate 20 0.5%, no sugar, 1%, 50° C.
Protocol: Addition effects of sodium deoxycholate and histidine in the absence of a sugar as the excipient was examined.
First, Polysorbate 20 was dissolved in distilled water in a concentration of 0.5%, and histidine or sodium deoxycholate in a concentration of 1.0%. Next, 20 mg of the active component (KRN7000) was weighed and stirred in 100 ml of the solvents in a heated bath to 80° C. for 20 minutes in order to form a solution. After cooling with running water, the mixture was filtered through a 0.22 μm filter, and transparent colorless glass vials having a volume of 5 ml were charged with a 1 ml portion of each of a variety of solutions thus obtained and subjected to lyophilization. Lyophilization was carried out under the condition of preliminary freezing at −40° C. for 2 hours and drying at −20° C. for 24 hours, 10° C. for 12 hours, and finally at 25° C. for 5 hours to give the lyophilized product. The degree of vacuum was set at 0.1 Torr or less during drying step.
After the lyophilization step, the lyophilized composition thus obtained was stored at 50° C. After storage for 3 days or 2 weeks, the lyophilized composition was reconstituted in 1 ml of distilled water for injection, left standing for 30 minutes, and solubility was judged when the foams generated on reconstitution disappeared. […]

- Variation with the passage of time after storage (by naked eye) ([1]; Polysorbate 20 0.1%, 2 weeks): +
- Variation with the passage of time after storage (by naked eye) ([1]; Polysorbate 20 0.2%, 2 weeks): +
- Variation with the passage of time after storage (by naked eye) ([1]; Polysorbate 20 0.3%, 1 month): +
- Variation with the passage of time after storage (by naked eye) ([1]; Polysorbate 20 0.3%, 2 weeks): −
- Variation with the passage of time after storage (by naked eye) ([1]; Polysorbate 20 0.5%, 1 month): +
- Variation with the passage of time after storage (by naked eye) ([1]; Polysorbate 20 0.5%, 2 weeks): −
- Variation with the passage of time after storage (by naked eye) ([1]; Polysorbate 20 1.0%, 1 month): +
- Variation with the passage of time after storage (by naked eye) ([1]; Polysorbate 20 1.0%, 2 weeks): −
- Variation with the passage of time after storage (by naked eye) ([1]; Polysorbate 20 2.0%, 1 month): +
- Variation with the passage of time after storage (by naked eye) ([1]; Polysorbate 20 2.0%, 2 weeks): −
- Variation with the passage of time after storage (by naked eye) ([1]; Polysorbate 20 4.0%, 1 month): +
- Variation with the passage of time after storage (by naked eye) ([1]; Polysorbate 20 4.0%, 2 weeks): −
- Variation with the passage of time after storage (by naked eye) ([1]; Polysorbate 20 8.0%, 1 month): +
- Variation with the passage of time after storage (by naked eye) ([1]; Polysorbate 20 8.0%, 2 weeks): −
- Re-solubility immediately after lyophilization (by naked eye) ([2]; Polysorbate 20 0.5%): + (not dissolved (or deposited))
- Re-solubility immediately after lyophilization (by naked eye) ([2]; Polysorbate 20 1.0%): + (not dissolved (or deposited))
- Re-solubility immediately after lyophilization (by naked eye) ([2]; Polysorbate 20 2.0%): + (not dissolved (or deposited))
- Re-solubility after storage (by naked eye) ([3]; Mannitol 10%, Sodium deoxycholate, 1%, 1 month): − (dissolved)
- Re-solubility after storage (by naked eye) ([3]; Mannitol 10%, Sodium deoxycholate, 1%, 4 months): − (dissolved)
- Re-solubility after storage (by naked eye) ([3]; Mannitol 10%, no additive, 1 month): − (dissolved)
- Re-solubility after storage (by naked eye) ([3]; Mannitol 10%, no additive, 4 months): + (not dissolved (or deposited))
- Re-solubility after storage (by naked eye) ([3]; Mannitol 15%, Glycerol, 0.1%, 1 month): + (not dissolved (or deposited))
- Re-solubility after storage (by naked eye) ([3]; Mannitol 15%, Glycerol, 0.1%, 4 months): + (not dissolved (or deposited))
- Re-solubility after storage (by naked eye) ([3]; Mannitol 15%, Glycerol, 1%, 1 month): + (not dissolved (or deposited))
- Re-solubility after storage (by naked eye) ([3]; Mannitol 15%, Glycerol, 1%, 4 months): + (not dissolved (or deposited))
- Re-solubility after storage (by naked eye) ([3]; Mannitol 15%, PEG400, 1%, 1 month): + (not dissolved (or deposited))
- Re-solubility after storage (by naked eye) ([3]; Mannitol 15%, PEG400, 1%, 4 months): + (not dissolved (or deposited))
- Re-solubility after storage (by naked eye) ([3]; Mannitol 15%, Sodium deoxycholate, 1%, 1 month): + (not dissolved (or deposited))
- Re-solubility after storage (by naked eye) ([3]; Mannitol 15%, Sodium deoxycholate, 1%, 4 months): + (not dissolved (or deposited))
- Re-solubility after storage (by naked eye) ([3]; Mannitol 15%, no additive, 1 month): + (not dissolved (or deposited))
- Re-solubility after storage (by naked eye) ([3]; Mannitol 15%, no additive, 4 months): + (not dissolved (or deposited))
- Re-solubility after storage (by naked eye) ([4]; Histidine, 2 weeks): + (not dissolved (or deposited))
- Re-solubility after storage (by naked eye) ([4]; Sodium deoxycholate, 3 days): + (not dissolved (or deposited))
Compound: CCCCCCCCCCCCCCCCCCCCCCCCCC(=O)N[C@@H](CO[C@H]1O[C@H](CO)[C@H](O)[C@H](O)[C@H]1O)[C@H](O)[C@H](O)CCCCCCCCCCCCCC [KRN7000, (2S,3S,4R)-1-(α-D-galactopyranosyloxy)-2-hexacosanoylamino-3,4-octadecanediol]

From patent US6417167B1, “Lyophilized compositions containing shingoglycolipid and process for preparing them” (Kirin Beer Kabushiki Kaisha, priority 1997, dated 2002)
